System: dapE- H. pylori mutant
Assay type: cell-based, Helicobacter pylori

N[C@H](CCC[C@H](N)C(=O)O)C(=O)O [DAP, diaminopimelic acid]
Minimum DAP concentration required for survival of the dapE− mutant: 0.2 mM
